Tests used:
Test in all cases: relative viability (nuclei count vs DMSO), 5 days (fraction); higher = more cells survive
[1] = compound: C1/C(=C\C2=CC=CS2)/C(=O)/C(=C/C3=CC=CS3)/C1 + N=C(N)NC(=N)NCCc1ccccc1 [Phenformin] (partner 250 µM)
How it was run: (§1)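 Lung cancer cell lines were seeded in 1536-well plates and dosed by pin tool the next day, with either a single drug or a fixed anchor-drug dose combined with five library-drug doses (not always all listed) spaced in √10 steps. Five days later, one step fixed the cells and stained their nuclei (final 0.05% Triton X-100, 1% formaldehyde, 1 ug/ml Hoechst), and nuclei were counted on 4× images. Relative viability is the nuclei count in treated wells divided by the count in vehicle wells, and each value is the median of duplicate plates.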

TPCA-1 + Luminespib = compound: C1=CC(=CC=C1C2=CC(=C(S2)NC(=O)N)C(=O)N)F [TPCA-1] + CCNC(=O)c1noc(-c2cc(C(C)C)c(O)cc2O)c1-c1ccc(CN2CCOCC2)cc1 [Luminespib] (partner 0.01 µM)
How it was run: as §1

TPCA-1 + Crizotinib = compound: C1=CC(=CC=C1C2=CC(=C(S2)NC(=O)N)C(=O)N)F [TPCA-1] + C[C@@H](Oc1cc(-c2cnn(C3CCNCC3)c2)cnc1N)c1c(Cl)ccc(F)c1Cl [Crizotinib] (partner 1 µM)
How it was run: as §1

Lestaurtinib + Lapatinib = compound: C[C@]12O[C@H](C[C@]1(O)CO)n1c3ccccc3c3c4c(c5c6ccccc6n2c5c31)CNC4=O [Lestaurtinib] + CS(=O)(=O)CCNCc1ccc(-c2ccc3ncnc(Nc4ccc(OCc5cccc(F)c5)c(Cl)c4)c3c2)o1 [Lapatinib] (partner 2 µM)
How it was run: as §1

Cell Line | relative viability ([1]; first compound 0.2 µM) | relative viability ([1]; first compound 0.6325 µM) | relative viability ([1]; first compound 2 µM) | relative viability ([1]; first compound 6.325 µM) | relative viability ([1]; first compound 20 µM) | relative viability (TPCA-1 + Luminespib; first compound 0.04 µM) | relative viability (TPCA-1 + Luminespib; first compound 0.1265 µM) | relative viability (TPCA-1 + Luminespib; first compound 0.4 µM) | relative viability (TPCA-1 + Luminespib; first compound 1.265 µM) | relative viability (TPCA-1 + Luminespib; first compound 4 µM) | relative viability (TPCA-1 + Crizotinib; first compound 0.04 µM) | relative viability (TPCA-1 + Crizotinib; first compound 0.1265 µM) | relative viability (TPCA-1 + Crizotinib; first compound 0.4 µM) | relative viability (TPCA-1 + Crizotinib; first compound 1.265 µM) | relative viability (TPCA-1 + Crizotinib; first compound 4 µM) | relative viability (Lestaurtinib + Lapatinib; first compound 0.005 µM) | relative viability (Lestaurtinib + Lapatinib; first compound 0.01581 µM) | relative viability (Lestaurtinib + Lapatinib; first compound 0.05 µM) | relative viability (Lestaurtinib + Lapatinib; first compound 0.1581 µM) | relative viability (Lestaurtinib + Lapatinib; first compound 0.5 µM)
201T | 0.495 | 0.431 | 0.478 | 0.425 | 0.455 | 1.1 | 1.07 | 1.07 | 1.05 | 0.967 | 1.04 | 0.998 | 1.08 | 1.02 | 1.03 | 1.05 | 1.08 | 1.04 | 1.2 | 0.961
A549 | 0.208 | 0.196 | 0.154 |  | 0.17 |  |  |  |  |  | 0.898 | 0.748 | 0.773 | 0.522 | 0.331 | 1.1 | 0.972 | 0.447 | 0.132 | 0.0697
A-427 | 0.346 | 0.417 | 0.273 | 0.292 | 0.278 | 1.01 | 0.873 | 0.935 | 0.902 | 0.637 | 0.856 | 0.817 | 1.09 | 0.879 | 0.625 | 1.03 | 1.06 | 1 | 0.711 | 0.225
ABC-1 | 0.234 | 0.253 | 0.247 | 0.219 | 0.211 | 1.24 | 0.477 | 0.34 | 0.665 | 0.47 | 1.38 | 1.05 | 0.957 | 0.733 | 0.569 | 1.27 | 1.32 | 1.06 | 1.01 | 1.15
BEN | 0.268 | 0.293 | 0.285 | 0.214 | 0.257 | 0.329 | 0.358 | 0.405 | 0.492 | 0.191 | 0.81 | 0.722 | 0.713 | 0.979 | 0.685 | 0.743 | 0.959 | 0.586 | 0.408 | 0.255
CAL-12T | 0.651 | 0.672 | 0.562 | 0.585 | 0.574 | 0.462 | 0.351 | 0.196 | 0.294 | 0.194 | 0.597 | 0.588 | 0.675 | 0.717 | 0.381 | 0.671 | 0.649 | 0.537 | 0.384 | 0.246
COR-L23 | 0.458 | 0.465 | 0.376 | 0.433 | 0.476 | 0.682 | 0.602 | 0.762 | 0.625 | 0.381 | 0.686 | 0.666 | 0.715 | 0.532 | 0.323 | 1.08 | 1.24 |  | 0.623 | 0.271
COR-L 105 | 0.526 | 0.491 | 0.499 |  | 0.481 | 0.782 | 0.658 | 0.766 | 0.738 | 0.648 | 0.812 | 1.14 | 0.751 | 0.629 | 0.347 | 0.358 | 0.389 | 0.289 | 0.304 | 0.256
Calu-6 |  |  |  |  |  |  |  |  |  |  | 0.861 | 0.789 | 0.767 | 0.669 | 0.373 | 1.09 | 1.2 | 0.557 | 0.499 | 0.208
ChaGo-K-1 | 0.517 | 0.493 | 0.459 | 0.3 | 0.271 | 0.766 | 0.689 | 0.698 | 0.453 | 0.302 | 1.2 | 1.04 | 1.17 | 0.836 | 0.608 |  |  |  |  | 
EBC-1 |  |  |  |  |  |  |  |  |  |  | 0.206 | 0.175 | 0.201 | 0.195 | 0.222 | 0.164 | 0.236 | 0.251 | 0.234 | 0.185
EKVX | 0.252 | 0.247 | 0.218 | 0.231 | 0.249 | 0.885 | 0.845 | 0.933 | 0.756 | 0.809 | 0.979 | 0.777 | 1.04 | 0.97 | 0.738 | 0.192 | 0.221 | 0.195 | 0.194 | 0.198
EMC-BAC-2 | 0.549 | 0.513 | 0.558 | 0.521 | 0.521 | 1.24 | 1.13 | 1.16 | 1.35 | 1.13 | 0.737 | 0.836 | 0.788 | 0.755 | 0.663 | 0.921 | 0.968 | 0.865 | 0.669 | 0.309
EPLC-272H | 0.289 | 0.318 | 0.298 | 0.238 | 0.276 | 0.265 | 0.262 | 0.443 | 0.38 | 0.207 | 1.02 | 0.93 | 0.868 | 0.888 | 0.58 | 0.87 | 1.06 | 0.616 | 0.513 | 0.5
H3255 | 0.377 | 0.324 | 0.352 | 0.34 | 0.309 | 0.696 | 0.893 | 0.836 | 0.822 | 0.622 | 0.815 | 0.882 | 0.863 | 0.674 | 0.848 | 0.2 | 0.175 | 0.243 | 0.18 | 0.112
HARA | 0.449 | 0.452 | 0.481 | 0.444 | 0.407 | 0.791 | 0.754 | 0.864 | 0.83 | 0.382 | 0.985 | 0.995 | 1.11 | 1.01 | 0.56 | 0.795 | 0.748 | 0.738 | 0.68 | 0.369
HCC-15 | 0.516 | 0.467 | 0.545 | 0.445 | 0.442 | 0.458 | 0.326 | 0.341 | 0.366 | 0.374 | 0.833 | 0.81 | 0.831 | 0.798 | 0.563 | 0.931 | 1.05 | 0.8 | 0.545 | 0.135

— the supplement of paper PMC10307832
